The target of one assay is CSNK1G2 (Homo sapiens, UniProt P78368). The experiment in a line: KinomeScan. The format is binding. Particulars: read-out: % Control.
The target in the next assay is T1, ERBB3 (Homo sapiens, UniProt P21860).
T1 construct: purchased DiscoveRx (Fremont, CA)
The experiment in a line: KinomeScan. Type of assay: binding. Particulars: read-out: % Control.

The target in the next assay is T2, ERK4 (Homo sapiens, UniProt P31152).
T2 construct: purchased DiscoveRx (Fremont, CA)
T2 sequence (P31152 whole entry): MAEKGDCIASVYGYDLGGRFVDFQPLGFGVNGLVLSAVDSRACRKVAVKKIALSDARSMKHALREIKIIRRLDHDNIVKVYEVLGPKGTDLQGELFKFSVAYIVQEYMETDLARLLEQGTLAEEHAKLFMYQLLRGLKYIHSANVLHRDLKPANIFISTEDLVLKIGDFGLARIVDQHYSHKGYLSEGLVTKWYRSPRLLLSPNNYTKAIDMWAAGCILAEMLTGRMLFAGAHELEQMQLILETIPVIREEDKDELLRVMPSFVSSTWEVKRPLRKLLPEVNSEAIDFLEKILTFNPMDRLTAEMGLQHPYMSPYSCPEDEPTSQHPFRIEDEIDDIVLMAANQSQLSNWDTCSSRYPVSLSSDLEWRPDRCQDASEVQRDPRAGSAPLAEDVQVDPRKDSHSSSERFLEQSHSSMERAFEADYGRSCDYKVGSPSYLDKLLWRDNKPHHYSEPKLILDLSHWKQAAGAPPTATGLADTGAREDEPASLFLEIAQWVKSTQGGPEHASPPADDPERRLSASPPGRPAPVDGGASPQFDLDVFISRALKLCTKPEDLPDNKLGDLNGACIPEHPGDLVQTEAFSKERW
Nature of the assay: KinomeScan. The format is binding. Particulars: read-out: % Control.

A further assay deals with T3, FGFR2 (Homo sapiens, UniProt P21802).
T3 construct: purchased DiscoveRx (Fremont, CA)
The experiment in a line: KinomeScan. The format is binding. The conditions noted are these: read-out: % Control.

Another assay has as its target T4, LIMK2 (Homo sapiens, UniProt P53671).
T4 construct: purchased DiscoveRx
The experiment in a line: KinomeScan. The conditions noted are these: read-out: % Control. The format is binding.

Another assay addresses T5, MAPKAPK5 (Homo sapiens, UniProt Q8IW41).
T5 construct: purchased DiscoveRx (Fremont, CA)
Nature of the assay: KinomeScan. The format is binding. The conditions noted are these: read-out: % Control.

A further assay addresses T6, p38-beta (Homo sapiens, UniProt Q15759).
T6 construct: purchased DiscoveRx
The experiment in a line: KinomeScan. The format is binding. The conditions noted are these: read-out: % Control.

A further assay has as its target T7, PFPK5(P. falciparum) (Plasmodium falciparum, UniProt P61075).
T7 construct: purchased DiscoveRx (Fremont, CA)
The experiment in a line: KinomeScan. Type of assay: binding. The conditions noted are these: read-out: % Control.

The target of the next assay is T8, PIK3CA(I800L) (Homo sapiens, UniProt P42336, I800L).
T8 construct: purchased DiscoveRx (Fremont, CA)
The experiment in a line: KinomeScan. The format is binding. The conditions noted are these: read-out: % Control.

For assay [1], the target named is T9, RPS6KA5(Kin.Dom.2-C-terminal) (Homo sapiens, UniProt O75582).
T9 construct: RPS6KA5(Kin.Dom.2-C-terminal); purchased DiscoveRx (Fremont, CA)
T9 sequence (O75582 426-687 limits assumed): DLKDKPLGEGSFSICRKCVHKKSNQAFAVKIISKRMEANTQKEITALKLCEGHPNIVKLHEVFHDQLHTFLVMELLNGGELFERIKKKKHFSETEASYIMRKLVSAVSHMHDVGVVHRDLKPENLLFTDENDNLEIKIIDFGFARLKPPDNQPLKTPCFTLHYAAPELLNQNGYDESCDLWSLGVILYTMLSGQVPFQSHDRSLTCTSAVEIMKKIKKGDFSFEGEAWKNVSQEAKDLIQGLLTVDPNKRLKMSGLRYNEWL
Nature of the assay: KinomeScan. The conditions noted are these: read-out: % Control. The format is binding.

Another assay deals with T10, CB2 (Homo sapiens, UniProt P34972).
T10 construct: host or cells: Chem-1 cells with promiscuous Gα15
T10 sequence (P34972 whole entry, species assumed): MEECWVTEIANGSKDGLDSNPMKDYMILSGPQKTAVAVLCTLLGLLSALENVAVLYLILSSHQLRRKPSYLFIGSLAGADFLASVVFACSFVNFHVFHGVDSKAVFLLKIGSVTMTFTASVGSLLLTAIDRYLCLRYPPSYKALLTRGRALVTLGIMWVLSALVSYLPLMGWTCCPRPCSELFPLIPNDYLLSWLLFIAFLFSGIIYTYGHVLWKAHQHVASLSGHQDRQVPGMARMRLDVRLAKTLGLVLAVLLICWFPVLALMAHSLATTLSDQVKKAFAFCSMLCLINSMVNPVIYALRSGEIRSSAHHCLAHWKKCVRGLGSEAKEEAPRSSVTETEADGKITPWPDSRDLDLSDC
The experiment in a line: GPCR Profiler. Type of assay: cell-based.

For a further assay, the target named is T11, GnRH (Homo sapiens, UniProt P30968).
T11 construct: host or cells: Chem-1 cells expressing Gα15
T11 sequence (P30968 whole entry): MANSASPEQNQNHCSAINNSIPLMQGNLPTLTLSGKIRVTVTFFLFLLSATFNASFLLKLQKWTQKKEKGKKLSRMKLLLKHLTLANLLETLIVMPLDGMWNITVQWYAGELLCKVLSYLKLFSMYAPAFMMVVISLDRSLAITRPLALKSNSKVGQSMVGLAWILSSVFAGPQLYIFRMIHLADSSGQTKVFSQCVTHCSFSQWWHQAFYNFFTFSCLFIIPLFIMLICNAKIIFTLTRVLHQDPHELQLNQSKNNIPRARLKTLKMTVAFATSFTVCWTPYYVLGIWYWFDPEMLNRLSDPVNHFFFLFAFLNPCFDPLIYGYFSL
The experiment in a line: GPCR Profiler. The format is cell-based.

The next assay concerns the target T12, MC5 (Homo sapiens, UniProt P33032).
T12 construct: host or cells: Chem-1 cells with promiscuous Gα15
Nature of the assay: GPCR Profiler. The format is cell-based.

Another assay has as its target T13, NK2 (Homo sapiens, UniProt P21452).
T13 construct: host or cells: Chem-1 cells expressing Gα15
Nature of the assay: GPCR Profiler. Type of assay: cell-based.

Another assay concerns the target T14, P2Y2 (Homo sapiens, UniProt P41231).
T14 construct: host or cells: Chem-1 cells expressing Gα15
Nature of the assay: GPCR Profiler. The format is cell-based.

The target in a further assay is T15, TRH (Homo sapiens, UniProt P34981).
T15 construct: host or cells: Chem-1 cells with Gα15
T15 sequence (P34981 whole entry): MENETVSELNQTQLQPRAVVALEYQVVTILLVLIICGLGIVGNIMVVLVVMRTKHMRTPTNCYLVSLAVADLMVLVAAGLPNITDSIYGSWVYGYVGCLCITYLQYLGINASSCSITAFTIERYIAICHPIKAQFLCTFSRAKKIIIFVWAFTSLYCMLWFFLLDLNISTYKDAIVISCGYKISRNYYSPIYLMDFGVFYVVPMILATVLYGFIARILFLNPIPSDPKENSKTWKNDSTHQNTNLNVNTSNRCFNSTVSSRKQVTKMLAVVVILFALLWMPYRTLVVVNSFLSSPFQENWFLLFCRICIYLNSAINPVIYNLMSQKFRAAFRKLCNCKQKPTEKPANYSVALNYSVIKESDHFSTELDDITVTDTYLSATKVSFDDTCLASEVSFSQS
Nature of the assay: GPCR Profiler. The format is cell-based.

In another assay the target is T16, Y2 (Homo sapiens, UniProt P49146).
T16 construct: host or cells: Chem-1 cells expressing Galpha15
T16 sequence (P49146 whole entry): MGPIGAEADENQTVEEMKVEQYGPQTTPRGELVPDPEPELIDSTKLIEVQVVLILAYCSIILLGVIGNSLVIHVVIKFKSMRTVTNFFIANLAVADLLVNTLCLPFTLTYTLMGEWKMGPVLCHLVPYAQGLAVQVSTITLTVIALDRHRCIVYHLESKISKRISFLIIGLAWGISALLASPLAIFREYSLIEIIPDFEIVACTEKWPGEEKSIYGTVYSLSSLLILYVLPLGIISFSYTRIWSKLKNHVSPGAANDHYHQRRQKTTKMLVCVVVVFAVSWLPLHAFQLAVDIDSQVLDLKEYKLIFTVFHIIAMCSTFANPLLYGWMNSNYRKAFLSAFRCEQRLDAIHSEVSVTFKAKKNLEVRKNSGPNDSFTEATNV
Nature of the assay: GPCR Profiler. The format is cell-based.

For the next assay, the target named is T17, Y4 (Homo sapiens, UniProt P50391).
T17 construct: host or cells: Chem-1 cells expressing Galpha15
T17 sequence (P50391 whole entry): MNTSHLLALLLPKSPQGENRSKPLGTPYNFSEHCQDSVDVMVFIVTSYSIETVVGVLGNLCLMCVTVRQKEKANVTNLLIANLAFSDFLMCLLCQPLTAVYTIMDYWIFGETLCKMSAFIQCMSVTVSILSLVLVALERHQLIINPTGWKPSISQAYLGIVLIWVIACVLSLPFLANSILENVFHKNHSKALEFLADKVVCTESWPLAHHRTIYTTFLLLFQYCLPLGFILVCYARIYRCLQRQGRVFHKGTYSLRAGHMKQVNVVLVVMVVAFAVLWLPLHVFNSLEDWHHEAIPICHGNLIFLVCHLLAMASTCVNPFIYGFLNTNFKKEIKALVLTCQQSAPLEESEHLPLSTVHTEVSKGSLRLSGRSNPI
Nature of the assay: GPCR Profiler. Type of assay: cell-based.

A further assay has as its system HeLa. The experiment in a line: Cell Titer-Glo viability, Cervical cancer. The format is cell-based. As to the method:
(§1) OGM2 kills wide variety of cancer cell types. Cell sensitivity can be classified in to Very Sensitive (LC50<2 μM), Sensitive (LC50=2 to 10 μM), Mildly Sensitive (LC50>10 μM), and Refractory (no killing at 10 μM). The listed established cell were incubated with OGM2 at 2 μM or 10 μM for 72 hours under standard cell culture conditions, and relative cell number was assessed using Cell Titer-Glo Luminescent Cell Viability Assay (Promega™) following the manufacturer's instructions. Luminescence was determined using a Cytation 5 reader and Gen5 software package (BioTek™).
(§2) Cancer cells, which are very sensitive to killing by OGM2 (LCs <2 μM), with reported mRNA expression of GPR68 and the related proton sensing receptor GPR4. LC50's (concentrations causing 50% lethality) were determined using CellTiter-Glo (Promega™, G7570). Cells were plated in 12-well plates (CELLTREAT Scientific Products, 229112) in 1 ml of DMEM with high glucose, GlutaMAX, HEPES, or RPMI 1640 with Penicillin-Streptomycin (ThermoFisher™, 10564029, 11875119 and 15140122) and 10% FBS. Cells were incubated overnight at 37° C. in 5% CO2. Then 1 mL of fresh media was added with DMSO, OGM, or positive control (Erastin; APExBIO Technology, LLC, B1524) and cells incubated for 3 days. On the third day, all media was removed, cells were rinsed with 1×PBS, PBS was removed, and 200 μL of 1× Passive Lysis Buffer (Promega™, E1941) was added to each well. […]. Subsequently, 20 μL of lysate was added to 100 μL CellTiter-Glo™ reagent on a LUMITRAC 200 plate (Greiner™ bio-one, 82050-726). Plates were briefly spun down and read on a GloMax-Multi Detection System (Promega™).
(§3) The cells listed in the tables above were incubated with OGM2 at 2 μM or 10 μM for 72 hours under standard cell culture conditions, and relative cell number was assessed using Cell Titer-Glo Luminescent Cell Viability Assay (Promega™) following the manufacturer's instructions. Luminescence was determined using a Cytation 5 reader and Gen5 software package (BioTek™). RNA expression of GPR68 and GPR4 in the corresponding cancer cell lines are listed, according to the publicly available The Human Protein Atlas version 22.0 and Ensembl version 103.38 (see proteinatlas.org). The consensus normalized expression value (“nTPM”=normalize transcript per million) was calculated as the maximum nTPM value for each gene in the two data sources.

In another assay the test system is BxPC-3. Nature of the assay: Cell Titer-Glo viability, Pancreatic adenocarcinoma. Type of assay: cell-based. As to the method:
as §1, §2, §3

The subject of another assay is Panc02. Described as above. Type of assay: cell-based. As to the method:
as §1, §2, §3

Read-outs that look alike come from different tables or passages of the source. A value given as a limit tells only on which side of the number the result lay.

T12 sequence (P33032 whole entry): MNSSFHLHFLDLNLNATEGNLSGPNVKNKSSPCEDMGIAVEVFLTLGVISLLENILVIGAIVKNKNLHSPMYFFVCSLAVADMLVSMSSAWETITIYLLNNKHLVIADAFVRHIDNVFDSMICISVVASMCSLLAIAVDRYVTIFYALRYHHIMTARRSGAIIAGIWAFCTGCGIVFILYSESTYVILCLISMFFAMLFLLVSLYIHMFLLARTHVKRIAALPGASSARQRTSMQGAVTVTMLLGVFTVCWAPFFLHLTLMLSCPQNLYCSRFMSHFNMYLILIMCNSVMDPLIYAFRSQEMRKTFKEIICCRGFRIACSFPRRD
T13 sequence (P21452 whole entry): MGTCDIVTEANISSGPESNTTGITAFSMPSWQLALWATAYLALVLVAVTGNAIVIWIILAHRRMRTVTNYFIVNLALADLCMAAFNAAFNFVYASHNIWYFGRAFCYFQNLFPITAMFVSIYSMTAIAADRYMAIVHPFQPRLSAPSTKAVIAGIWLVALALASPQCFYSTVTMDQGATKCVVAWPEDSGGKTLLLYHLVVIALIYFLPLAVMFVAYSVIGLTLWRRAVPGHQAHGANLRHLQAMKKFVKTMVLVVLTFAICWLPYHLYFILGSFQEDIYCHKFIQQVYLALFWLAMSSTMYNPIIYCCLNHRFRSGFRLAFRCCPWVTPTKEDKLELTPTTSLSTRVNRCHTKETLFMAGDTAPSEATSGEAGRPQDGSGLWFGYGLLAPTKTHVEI
T14 sequence (P41231 whole entry, species assumed): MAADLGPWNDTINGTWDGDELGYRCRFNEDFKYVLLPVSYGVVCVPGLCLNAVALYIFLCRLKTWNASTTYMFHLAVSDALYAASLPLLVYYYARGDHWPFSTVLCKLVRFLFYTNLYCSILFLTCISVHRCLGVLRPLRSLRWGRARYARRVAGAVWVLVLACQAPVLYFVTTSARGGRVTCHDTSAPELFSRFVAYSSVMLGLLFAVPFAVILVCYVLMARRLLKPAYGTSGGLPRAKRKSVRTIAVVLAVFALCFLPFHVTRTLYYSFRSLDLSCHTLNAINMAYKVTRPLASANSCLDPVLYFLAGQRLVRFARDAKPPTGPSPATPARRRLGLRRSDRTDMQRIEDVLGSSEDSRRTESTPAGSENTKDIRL
T7 sequence (P61075 whole entry): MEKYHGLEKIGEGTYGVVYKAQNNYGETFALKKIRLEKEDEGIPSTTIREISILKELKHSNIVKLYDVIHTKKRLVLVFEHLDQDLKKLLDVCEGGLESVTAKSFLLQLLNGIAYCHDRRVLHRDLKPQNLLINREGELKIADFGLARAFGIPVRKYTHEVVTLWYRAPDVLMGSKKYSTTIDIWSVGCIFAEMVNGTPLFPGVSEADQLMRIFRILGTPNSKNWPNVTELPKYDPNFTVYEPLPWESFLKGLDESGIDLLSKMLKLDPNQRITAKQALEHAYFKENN
Sequence of CSNK1G2 (P78368 whole entry): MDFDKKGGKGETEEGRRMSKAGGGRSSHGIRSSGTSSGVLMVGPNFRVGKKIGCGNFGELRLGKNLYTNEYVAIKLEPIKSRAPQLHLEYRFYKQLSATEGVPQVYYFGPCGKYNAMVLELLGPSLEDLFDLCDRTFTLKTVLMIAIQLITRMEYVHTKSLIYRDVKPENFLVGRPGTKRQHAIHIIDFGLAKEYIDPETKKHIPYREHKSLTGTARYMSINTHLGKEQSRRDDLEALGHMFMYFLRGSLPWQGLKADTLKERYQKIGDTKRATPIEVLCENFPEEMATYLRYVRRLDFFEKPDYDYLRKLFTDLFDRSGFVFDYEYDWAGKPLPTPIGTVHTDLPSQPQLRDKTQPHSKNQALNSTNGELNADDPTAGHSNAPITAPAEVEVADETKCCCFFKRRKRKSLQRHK
T6 sequence (Q15759 whole entry): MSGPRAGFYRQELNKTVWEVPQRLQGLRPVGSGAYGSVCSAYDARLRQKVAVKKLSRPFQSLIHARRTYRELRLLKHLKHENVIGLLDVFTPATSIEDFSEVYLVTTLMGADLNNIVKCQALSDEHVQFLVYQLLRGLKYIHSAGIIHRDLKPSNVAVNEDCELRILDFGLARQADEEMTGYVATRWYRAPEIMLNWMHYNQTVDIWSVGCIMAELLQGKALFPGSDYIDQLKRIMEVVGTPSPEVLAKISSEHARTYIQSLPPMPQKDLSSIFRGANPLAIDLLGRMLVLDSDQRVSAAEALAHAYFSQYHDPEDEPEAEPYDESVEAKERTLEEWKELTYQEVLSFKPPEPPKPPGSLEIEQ

`CCc1ccc2c(c1)C1(NN=C(c3cccc4ccccc34)S1)C(=O)N2` (stereo not drawn) [OGM1, 5-ethyl-5′-naphthalen-1-ylspiro[1H-indole-3,2′-3H-1,3,4-thiadiazole]-2-one]: the remaining binding at 10 µM on CSNK1G2 was 100%; on ERBB3, 84%; at ERK4, 93%; at FGFR2 it was 100%; at LIMK2 it was 100%; on MAPKAPK5, 86%. Also, the remaining binding at 10 µM on p38-beta came to 100%; on PFPK5(P. falciparum), 82%; at PIK3CA(I800L) it was 100%; in assay [1], 91%. Besides, the Antagonism at CB2 (10 uM) is −13.8; on GnRH (10 uM), −2.6; on MC5 (10 uM), 13.9; on NK2 (10 uM) it was 1; on P2Y2 (10 uM), −9; on TRH (10 uM), 1.4. Besides, the Antagonism on Y2 (10 uM) is reported as −0.6; at Y4 (10 uM), −5.5. Moreover, the Agonism on CB2 (12.5 uM) is −2.4; on GnRH (12.5 uM), 0.5; at MC5 (12.5 uM) it was 0.9; at NK2 (12.5 uM) it was 0; on P2Y2 (12.5 uM), 0.1; at TRH (12.5 uM), 0.1. Further, the Agonism on Y2 (12.5 uM) is reported as 2.5; on Y4 (12.5 uM), −0.2.
`CCc1ccc2c(c1)C1(NN=C(c3ccccc3)S1)C(=O)N2` (stereo not drawn) [OGM2]: the Class result in the assay on HeLa is on record as “Mildly”; in the assay on HeLa (Table 13) it was “Low”; in the assay with BxPC-3, “Mildly”; in the assay with Panc02, “Sensitive (Sensitive (LC50=2 to 10 μM))”. Further, the “% Survival 2 μM OGM” value is recorded as 91.5% in the assay on HeLa (72 hours), 81.5% in the assay with BxPC-3 (72 hours) and 72.5% in the assay on Panc02 (72 hours). The “% Survival 10 μM OGM” value amounted to 68.0% with HeLa (72 hours), 83.8% in the assay on BxPC-3 (72 hours) and 40.5% with Panc02 (72 hours). In addition, the CC50 in the assay with HeLa (Homo sapiens, HeLa, 72 hours, read-out: LC50 (the source's name)) was more than 10 µM; in the assay with BxPC-3 (Homo sapiens, BXPC-3, 72 hours, read-out: LC50 (the source's name)) it was more than 10 µM; in the assay on Panc02 (Mus musculus, Panc02, 72 hours, read-out: LC50 (the source's name)), 2 to 10 µM.

These data come from patent US20240327364A1, “THERAPEUTIC TARGETING OF GPR68 TO INDUCE FERROPTOSIS” (University Of Maryland, Baltimore, priority 2023, published 2024).
